Data published in paper PMC9599461, “Stereoselectivity in the Membrane Transport of Phenylethylamine Derivatives by Human Monoamine Transporters and Organic Cation Transporters 1, 2, and 3” (Biomolecules, 2022).
Read-outs that look alike come from different tables or passages of the source.

How the values were obtained:
OCT3 = biological target: T1, OCT3 (Homo sapiens, UniProt O75751); experiment: Stereoselective uptake into OCT3-overexpressing HEK293 cells; conditions: for Clint ± SEM: quotient of vmax over Km; for Stereoselectivity Vmax: given as for (R) or for 1;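 as to all read-outs here: intracellular accumulation in HEK293 cells measured by chiral HPLC-MS/MS after a 2 min substrate exposure at 37 °C, uptake normalized to total protein (bicinchoninic acid assay)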
T1 sequence (O75751 1-556): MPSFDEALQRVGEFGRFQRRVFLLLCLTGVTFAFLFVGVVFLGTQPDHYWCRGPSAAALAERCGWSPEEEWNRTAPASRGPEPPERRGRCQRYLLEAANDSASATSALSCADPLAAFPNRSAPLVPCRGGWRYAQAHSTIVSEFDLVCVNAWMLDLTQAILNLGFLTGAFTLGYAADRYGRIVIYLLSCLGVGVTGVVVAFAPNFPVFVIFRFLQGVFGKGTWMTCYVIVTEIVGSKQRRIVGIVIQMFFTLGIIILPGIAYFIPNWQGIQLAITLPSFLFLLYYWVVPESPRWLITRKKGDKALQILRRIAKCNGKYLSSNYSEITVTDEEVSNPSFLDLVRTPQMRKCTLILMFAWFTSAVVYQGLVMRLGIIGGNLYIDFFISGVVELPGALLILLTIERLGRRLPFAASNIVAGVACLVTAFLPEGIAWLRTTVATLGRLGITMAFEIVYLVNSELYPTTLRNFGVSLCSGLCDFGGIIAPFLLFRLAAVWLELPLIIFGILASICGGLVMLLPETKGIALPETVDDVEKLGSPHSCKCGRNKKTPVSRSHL

NET = NET (Homo sapiens, UniProt P23975); experiment: Stereoselective uptake into NET-overexpressing HEK293 cells; conditions: for Vmax ± SEM: net uptake; for Clint ± SEM: quotient of vmax over Km; for Stereoselectivity ClInt / Stereoselectivity Vmax: given as for (S) or for 2;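 as to all read-outs here: intracellular enantiomers quantified in cell lysates by chiral HPLC-MS/MS after a 2 min substrate incubation, with uptake normalized to total cellular protein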
Sequence of NET (P23975 whole entry): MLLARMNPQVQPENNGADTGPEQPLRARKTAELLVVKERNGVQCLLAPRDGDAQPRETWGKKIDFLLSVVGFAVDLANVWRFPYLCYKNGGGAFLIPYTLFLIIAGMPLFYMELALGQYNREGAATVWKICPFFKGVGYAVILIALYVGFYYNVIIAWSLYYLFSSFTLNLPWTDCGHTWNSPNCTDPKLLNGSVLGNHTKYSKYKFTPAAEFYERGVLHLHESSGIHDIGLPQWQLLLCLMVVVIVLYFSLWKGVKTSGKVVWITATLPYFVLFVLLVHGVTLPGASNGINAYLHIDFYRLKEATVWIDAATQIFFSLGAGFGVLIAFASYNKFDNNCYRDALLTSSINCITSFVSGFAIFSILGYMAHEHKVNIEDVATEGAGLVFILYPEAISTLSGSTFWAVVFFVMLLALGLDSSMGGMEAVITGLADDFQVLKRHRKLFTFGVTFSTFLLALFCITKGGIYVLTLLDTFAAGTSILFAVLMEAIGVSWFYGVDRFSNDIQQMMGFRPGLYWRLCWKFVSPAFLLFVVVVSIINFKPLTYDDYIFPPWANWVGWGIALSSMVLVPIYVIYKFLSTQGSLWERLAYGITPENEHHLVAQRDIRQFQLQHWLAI

OCT2 [1] = biological target: T2, OCT2 (Homo sapiens, UniProt O15244, S270A); experiment: Stereoselective uptake into OCT2 (wild-type)-overexpressing HEK293 cells; conditions: OCT2, ratio between enantiomers
T2 sequence (O15244 1-555 S270A): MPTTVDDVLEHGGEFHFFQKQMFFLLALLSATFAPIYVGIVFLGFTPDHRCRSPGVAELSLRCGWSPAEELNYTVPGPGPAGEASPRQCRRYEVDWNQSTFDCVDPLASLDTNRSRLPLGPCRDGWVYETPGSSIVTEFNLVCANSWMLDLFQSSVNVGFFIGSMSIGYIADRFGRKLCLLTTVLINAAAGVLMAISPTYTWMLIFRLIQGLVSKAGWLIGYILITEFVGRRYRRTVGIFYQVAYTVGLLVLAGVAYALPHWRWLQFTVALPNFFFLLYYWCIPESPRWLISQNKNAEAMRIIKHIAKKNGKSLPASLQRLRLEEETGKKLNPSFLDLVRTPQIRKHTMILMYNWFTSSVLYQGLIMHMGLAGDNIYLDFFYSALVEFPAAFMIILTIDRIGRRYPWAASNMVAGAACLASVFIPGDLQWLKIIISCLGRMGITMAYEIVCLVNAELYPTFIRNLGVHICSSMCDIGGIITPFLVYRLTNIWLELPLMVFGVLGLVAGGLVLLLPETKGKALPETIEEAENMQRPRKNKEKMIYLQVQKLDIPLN

OCT2 [2] = biological target: T3, OCT2 (Homo sapiens, UniProt O15244); experiment: as above; conditions: for Vmax ± SEM: net uptake; for Clint ± SEM: OCT2, quotient of vmax over Km
T3 sequence (O15244 1-555 S270A): T2 sequence (O15244 1-555 S270A)

DAT = DAT (Homo sapiens, UniProt Q01959); experiment: Stereoselective uptake into DAT-overexpressing HEK293 cells; conditions: DAT;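 also: intracellular accumulation measured by chiral HPLC-MS/MS in stably transfected HEK293 cells, normalized to total protein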
Sequence of DAT (Q01959 whole entry): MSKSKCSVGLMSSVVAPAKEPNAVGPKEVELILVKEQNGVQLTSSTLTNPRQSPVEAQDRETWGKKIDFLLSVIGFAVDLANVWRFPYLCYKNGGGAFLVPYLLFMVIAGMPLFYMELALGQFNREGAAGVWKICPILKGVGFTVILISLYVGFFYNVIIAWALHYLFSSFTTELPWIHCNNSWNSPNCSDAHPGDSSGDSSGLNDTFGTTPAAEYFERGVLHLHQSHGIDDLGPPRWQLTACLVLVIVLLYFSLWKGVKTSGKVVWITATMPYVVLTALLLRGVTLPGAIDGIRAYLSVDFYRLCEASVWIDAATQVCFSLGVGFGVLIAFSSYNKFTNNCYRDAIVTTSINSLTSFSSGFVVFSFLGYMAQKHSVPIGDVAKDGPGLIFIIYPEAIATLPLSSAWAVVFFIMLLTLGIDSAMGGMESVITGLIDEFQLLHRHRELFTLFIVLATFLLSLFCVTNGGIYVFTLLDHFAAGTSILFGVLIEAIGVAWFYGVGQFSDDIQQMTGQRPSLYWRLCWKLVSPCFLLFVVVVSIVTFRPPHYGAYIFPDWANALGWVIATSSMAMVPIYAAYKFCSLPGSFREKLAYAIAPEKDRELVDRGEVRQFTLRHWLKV

SERT [3] = biological target: T4, SERT (Homo sapiens, UniProt P31645);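 also: uptake into HEK293 cells stably expressing human SERT over 2 min, enantiomers measured in cell lysate by chiral HPLC-MS/MS, normalized to total protein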
T4 sequence (P31645 whole entry): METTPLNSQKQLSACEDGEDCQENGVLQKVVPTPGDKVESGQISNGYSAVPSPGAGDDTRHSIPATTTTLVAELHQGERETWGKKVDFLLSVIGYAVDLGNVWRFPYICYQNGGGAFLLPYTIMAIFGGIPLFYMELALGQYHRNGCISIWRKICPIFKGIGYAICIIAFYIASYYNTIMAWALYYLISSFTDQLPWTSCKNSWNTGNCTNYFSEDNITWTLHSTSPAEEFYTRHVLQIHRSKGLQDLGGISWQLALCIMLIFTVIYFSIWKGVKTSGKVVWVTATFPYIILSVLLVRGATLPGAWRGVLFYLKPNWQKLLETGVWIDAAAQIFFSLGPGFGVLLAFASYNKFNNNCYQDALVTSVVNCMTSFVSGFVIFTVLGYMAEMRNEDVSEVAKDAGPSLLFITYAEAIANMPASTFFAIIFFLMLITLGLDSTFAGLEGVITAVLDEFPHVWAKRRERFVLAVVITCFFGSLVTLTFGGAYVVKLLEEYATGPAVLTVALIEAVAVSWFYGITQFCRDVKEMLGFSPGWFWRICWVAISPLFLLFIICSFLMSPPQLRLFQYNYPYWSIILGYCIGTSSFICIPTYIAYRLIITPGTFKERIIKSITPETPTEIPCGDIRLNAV

OCT2 A270S variant = experiment: Stereoselective uptake into OCT2 A270S variant-overexpressing HEK293 cells; conditions: OCT2 wild-type versus A270S, 100 μM racemic substance, two minutes;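 also: uptake into HEK293 cells stably overexpressing human OCT2 variants, intracellular enantiomers quantified by chiral HPLC-MS/MS and normalized to total protein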
SERT [4] = biological target: T4, SERT; experiment: Stereoselective uptake into SERT-overexpressing HEK293 cells; conditions: for Clint ± SEM: SERT, quotient of vmax over Km;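 as to all read-outs here: uptake into HEK293 cells stably expressing human SERT over 2 min, enantiomers measured in cell lysate by chiral HPLC-MS/MS, normalized to total protein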
OCT1 = biological target: T5, OCT1 (Homo sapiens, UniProt O15245); experiment: Stereoselective uptake into OCT1-overexpressing HEK293 cells; conditions: for Vmax ± SEM: net uptake; for Clint ± SEM: quotient of vmax over Km; for Stereoselectivity Vmax: given as for (R) or for 1;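 as to all read-outs here: enantiomers quantified inside cells by chiral HPLC-MS/MS, uptake normalized to total protein from bicinchoninic acid assay, substrates applied in HBSS+ buffer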
T5 sequence (O15245 1-554): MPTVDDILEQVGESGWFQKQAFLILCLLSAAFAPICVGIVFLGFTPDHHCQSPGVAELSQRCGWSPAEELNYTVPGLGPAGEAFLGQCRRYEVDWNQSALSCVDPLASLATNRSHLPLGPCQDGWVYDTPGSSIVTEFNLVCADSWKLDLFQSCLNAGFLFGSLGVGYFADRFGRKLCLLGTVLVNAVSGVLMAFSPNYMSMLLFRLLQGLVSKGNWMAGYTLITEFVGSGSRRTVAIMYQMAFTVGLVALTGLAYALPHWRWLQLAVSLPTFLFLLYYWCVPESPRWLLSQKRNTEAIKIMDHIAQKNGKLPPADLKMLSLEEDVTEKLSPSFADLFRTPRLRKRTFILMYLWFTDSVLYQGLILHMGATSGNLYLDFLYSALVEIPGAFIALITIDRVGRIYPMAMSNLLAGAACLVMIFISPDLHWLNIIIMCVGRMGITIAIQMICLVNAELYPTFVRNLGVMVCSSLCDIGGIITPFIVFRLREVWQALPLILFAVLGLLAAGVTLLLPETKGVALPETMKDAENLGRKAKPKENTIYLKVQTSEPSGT
Method: All transport experiments were carried out in HEK293 cells stably overexpressing human MATs or OCTs. […] All cells were regularly cultivated in DMEM supplemented with 10% (v/v) FCS, penicillin (100 U/mL) and streptomycin (100 μg/mL)and kept in culture for no longer than 30 passages.
For the uptake experiments, 300,000 cells were plated in poly-D-lysine precoated 24-well plates 48 h ahead of the transport experiment. On the day of experiment, cells were initially washed once with 37 °C pre-warmed HBSS+ (Hanks buffered salt solution supplemented with 10 mM HEPES) and subsequently incubated with the substrates dissolved in pre-warmed HBSS+ for exactly two minutes. Incubation was stopped by adding ice-cold HBSS+ followed by two washing steps. After this, cells were lysed with 80% acetonitrile containing 10 ng/mL milnacipran as internal standard for high-performance liquid chromatography coupled to tandem mass spectrometry (HPLC-MS/MS) analysis. For every experiment, two additional wells per cell line were lysed using RIPA buffer for protein quantification. Total protein was quantified using the bicinchoninic acid assay [42]. This was later used for normalization of the uptake data.
Intracellularly accumulated test substances were quantified by HPLC-MS/MS analysis using a Shimadzu Nexera HPLC system with a SIL-30AC autosampler, a CTO-20AC column oven, a LC-30AD pump, and a CBM-20A controller (Shimadzu, Kyoto, Japan). Stereoselective chromatography was carried out on a [sequence] CBH HPLC column (100 × 3 mm inner dimension with 5 μM particle size; Sigma-Aldrich, Darmstadt, Germany) with a corresponding 10 × 3 mm guard column. Reversed phased chromatography was carried out using an ammonium acetate (NH4Ac) buffered aqueous mobile phase with isopropyl alcohol (IPA) as organic solvent. […] The order of elution of the enantiomers was obtained from available reference literature [43] or by applying enantiopure reference compounds to the chiral HPLC. […] Given the structural similarity of the investigated substances and the fact that separation was performed on the same column with almost identical mobile phases, we assume that this order of elution for our compound set is always the (R)- before the (S)-enantiomer.
Detection was performed with an API 4000 tandem mass spectrometer (AB SCIEX, Darmstadt, Germany) operating in multiple-reaction-monitoring mode. Quantification was performed using the Analyst 1.6.2 software (AB SCIEX, Darmstadt, Germany) and quantified by comparison to standard curves with known concentrations.
All uptake data were normalized to protein content to account for variation in the number of seeded sells. Transporter-mediated net uptake was calculated by subtracting uptake into empty vector-transfected control cells from uptake into transporter-transfected cells. Kinetic parameters were then determined after non-linear regression following the Michaelis–Menten equation (v = vmax × [S]/(Km + [S])) using GraphPad Prism (Version 5.01 for Windows, GraphPad Software, La Jolla, CA, USA). Vmax refers to the maximum transport velocity and Km is defined as the substance concentration required to reach half of vmax. The intrinsic clearance Clint was calculated as the quotient of vmax over Km.

[5] = OCT3, ratio between enantiomers
[6] = OCT3, ratio between enantiomers, given as for (R) or for 1 (first-eluting)
[7] = HEK293 cells overexpressing human OCT2, racemic substrate, two minutes
[8] = HEK293 cells overexpressing human OCT1, racemic substrate, two minutes
[9] = OCT1, ratio between enantiomers
[10] = HEK293 cells overexpressing human NET, racemic substrate, two minutes
[11] = given as for (R) or for 1 (first-eluting)
[12] = ratio between enantiomers, given as for (S) or for 2

| Compound | Clint ± SEM (OCT3; OCT3) | Stereoselectivity Vmax (OCT3; [5]) [fold] | Stereoselectivity Km (OCT3; [6]) [fold] | Stereoselectivity ClInt (OCT2 [1]; given as for (R) or for 1) [fold] | Stereoselectivity Vmax (OCT2 [1]; given as for (R) or for 1) [fold] | Vmax ± SEM (OCT2 [2]; [7]) | Clint ± SEM (OCT2 [2]) | Stereoselectivity ClInt (SERT [3]; human) [fold] | Stereoselectivity Km (SERT [4]) [fold] | Stereoselectivity Vmax (SERT [4]) [fold] | Clint ± SEM (SERT [4]) | Vmax ± SEM (OCT1; [8]) | Clint ± SEM (OCT1; OCT1) | Stereoselectivity Vmax (OCT1; [9]) [fold] | Stereoselectivity ClInt (OCT1; human, 2 min) [fold] | Vmax ± SEM (NET; [10]) | Clint ± SEM (NET; NET) | Stereoselectivity ClInt (NET; NET, ratio between enantiomers) [fold] | Stereoselectivity Vmax (NET; NET, ratio between enantiomers) [fold] | Stereoselectivity Km (OCT2 [1]; [11]) [fold] | also measured |
| --- | --- | --- | --- | --- | --- | --- | --- | --- | --- | --- | --- | --- | --- | --- | --- | --- | --- | --- | --- | --- | --- |
| CNCC(O)c1ccc(O)c(OC)c1 (single isomer, unassigned) [Metanephrine-2, Metanephrine] | 26.0 mL × g Protein^−1 × min^−1 | 1.19 | 1.19 | 2.66 | 2.13 | 528 pmol × mg Protein^−1 × min^−1 | 7.75 mL × g Protein^−1 × min^−1 | 1.01 | 1.09 | 1.08 | 0.57 mL × g Protein^−1 × min^−1 | 1018 pmol × mg Protein^−1 × min^−1 | 6.97 mL × g Protein^−1 × min^−1 | 1.06 | 1.16 |  |  |  |  |  | Stereoselectivity ClInt (OCT3; OCT3, ratio between enantiomers, given as for (R) or for 1 (also 1.00-fold for 1/2)): 1.00 fold; Saturable net uptake (NET; NET, result in words): No saturable net uptake; Stereoselectivity Km (OCT2 [1]; given as for (S) or for 2 (second-eluting)): 1.25 fold; Saturable net uptake (DAT; result in words): No saturable net uptake; Transporter selectivity (OCT2 A270S variant; given as for A270S, listed as (S)-Metanephrine): 1.47 fold; Stereoselectivity Km (OCT1; OCT1, ratio between enantiomers, given as for (S) or for 2 (second-eluting)): 1.09 fold |
| NCC(O)c1cccc(O)c1 (single isomer, unassigned) [Norphenylephrine-2, Norphenylephrine] | 3.32 mL × g Protein^−1 × min^−1 | 3.88 | 1.17 | 1.40 | 2.19 |  | 26.07 mL × g Protein^−1 × min^−1 | 1.53 | 1.20 | 1.27 | 1.83 mL × g Protein^−1 × min^−1 |  | 3.84 mL × g Protein^−1 × min^−1 | 1.08 | 1.05 | 531 pmol × mg Protein^−1 × min^−1 | 230 mL × g Protein^−1 × min^−1 | 1.21 | 1.25 | 1.57 | Stereoselectivity ClInt (OCT3; human, 2 min): 3.32 fold; Clint ± SEM (DAT; quotient of vmax over Km): 167 mL × g Protein^−1 × min^−1; Stereoselectivity ClInt (DAT; [12]): 1.29 fold; Stereoselectivity Vmax (DAT; [12]): 1.55 fold; Stereoselectivity Km (DAT; ratio between enantiomers, given as for (S) or for 2 (second-eluting)): 1.20 fold; Transporter selectivity (OCT2 A270S variant; given as for WT, listed as (S)-Norphenylephrine): 1.12 fold; Stereoselectivity Km (OCT1; OCT1, ratio between enantiomers, given as for (R) or for 1 (first-eluting)): 1.03 fold |
| C[C@@H]1NCCc2cc(O)c(O)cc21 [Salsolinol-2, Salsolinol] | 3.15 mL × g Protein^−1 × min^−1 | 1.01 |  |  |  | 9160 pmol × mg Protein^−1 × min^−1 | 42.7 mL × g Protein^−1 × min^−1 |  | 1.85 | 1.34 | 0.71 mL × g Protein^−1 × min^−1 | 1426 pmol × mg Protein^−1 × min^−1 | 10.9 mL × g Protein^−1 × min^−1 |  |  | 151 pmol × mg Protein^−1 × min^−1 | 1.48 mL × g Protein^−1 × min^−1 | 1.19 | 1.35 | 1.04 | Stereoselectivity ClInt (OCT3): 1.21 fold; Vmax ± SEM (OCT3; HEK293 cells overexpressing human OCT3, racemic substrate, two minutes, net uptake): 697 pmol × mg Protein^−1 × min^−1; Stereoselectivity Km (OCT3; OCT3, ratio between enantiomers, given as for (S) or for 2 (second-eluting)): 1.20 fold; Km (OCT3; read-out: Km ± SEM, HEK293 cells overexpressing human OCT3, racemic substrate, two minutes, net uptake minus empty vector control): 222 µM; Stereoselectivity Km (NET; NET, ratio between enantiomers, given as for (S) or for 2 (second-eluting)): 1.13 fold; Km (NET; read-out: Km ± SEM, HEK293 cells overexpressing human NET, racemic substrate, two minutes, net uptake minus empty vector control): 102 µM; Stereoselectivity ClInt (OCT2 [1]; given as for (S) or for 2): 1.05 fold; Stereoselectivity Vmax (OCT2 [1]; given as for (S) or for 2): 1.01 fold; Km (OCT2 [2]; read-out: Km ± SEM, HEK293 cells overexpressing human OCT2, racemic substrate, two minutes, net uptake minus empty vector control): 213 µM; Stereoselectivity ClInt (SERT [3]): 2.48 fold; Transporter selectivity (OCT2 A270S variant; given as for WT, listed as (S)-Salsolinol): 1.45 fold; Vmax ± SEM (SERT [4]; HEK293 cells overexpressing human SERT, racemic substrate, two minutes, net uptake): 171 pmol × mg Protein^−1 × min^−1; Km (SERT [4]; read-out: Km ± SEM, HEK293 cells overexpressing human SERT, racemic substrate, two minutes, net uptake minus empty vector control): 239 µM; Stereoselectivity ClInt (OCT1; OCT1, ratio between enantiomers, given as for (R) or for 1 (also 1.00-fold for 1/2)): 1.00 fold; Km (OCT1; read-out: Km ± SEM, HEK293 cells overexpressing human OCT1, racemic substrate, two minutes, net uptake minus empty vector control): 131 µM |
